{"source": "ChEMBL document CHEMBL5528067", "about": "“From Synergy to Monotherapy: Discovery of Novel 2,4,6-Trisubstituted Triazine Hydrazone Derivatives with Potent Antifungal Potency In Vitro and In Vivo” (J Med Chem, 2024)", "key": {"[1]": {"tested_on": "Candida albicans", "test": "Suppression of ALS3 gene expression in Candida albicans SC5314 at 4 to 8 microg/ml by real time RT-PCR analysis", "format": "functional", "conditions": "dose 4-8 µg/ml"}, "[2]": {"tested_on": "Candida albicans", "test": "Antibiofilm activity against Candida albicans SC5314 assessed as inhibition of biofilm formation at 4 microg/ml incubated for 24 hrs by XTT/menadione reduction assay relative to control", "format": "functional", "parameters": "scale not given: the % may be the effect or the level left", "conditions": "dose 4 µg/ml"}, "[3]": {"tested_on": "Candida albicans", "test": "Induction of cell wall component change in Candida albicans SC5314 assessed as decrease in mannan content by measuring ConA fluorescence intensity at 4 microg/ml measured after 12 hrs by confocal laser-scanning microscopy", "format": "functional, organism-based", "conditions": "dose 4.0 µg/ml"}, "[4]": {"tested_on": "Candida albicans", "test": "Antifungal activity against FCZ-resistant Candida albicans 10231 assessed as growth inhibition measured after 48 hrs incubation by CLSI based micro-dilution broth method", "format": "functional"}, "[5]": {"tested_on": "Candida albicans", "test": "Suppression of EFG1 gene expression in Candida albicans SC5314 assessed as fold increase at 8 microg/ml by real time RT-PCR analysis relative to control", "format": "functional", "conditions": "dose 8.0 µg/ml"}, "[6]": {"tested_on": "Candida parapsilosis", "test": "Antifungal activity against Candida parapsilosis 22019 assessed as growth inhibition measured after 48 hrs incubation by CLSI based micro-dilution broth method", "format": "functional", "conditions": "Lodderomyces parapsilosis"}, "[7]": {"tested_on": "Cryptococcus neoformans", "test": "Antifungal activity against FCZ-resistant Cryptococcus neoformans 32609 assessed as growth inhibition at 0.5 to 4 microg/ml measured at 24 hrs incubation by time growth assay", "format": "functional, organism-based", "conditions": "dose 0.5-4 µg/ml"}, "[8]": {"tested_on": "Nakaseomyces glabratus", "test": "Antifungal activity against Candida glabrata 537 assessed as growth inhibition measured after 48 hrs incubation by CLSI based micro-dilution broth method", "format": "functional"}, "[9]": {"tested_on": "Cryptococcus neoformans", "test": "Antifungal activity against Cryptococcus neoformans 32609 assessed as growth inhibition measured after 48 hrs incubation by CLSI based micro-dilution broth method", "format": "functional"}, "[10]": {"tested_on": "[Candida] auris", "test": "Antifungal activity against FCZ-resistant Candida auris 918 assessed as growth inhibition measured after 48 hrs incubation by CLSI based micro-dilution broth method", "format": "functional", "conditions": "Candidozyma auris"}, "[11]": {"tested_on": "[Candida] auris", "test": "Antifungal activity against FCZ-resistant Candida auris 919 assessed as growth inhibition measured after 48 hrs incubation by CLSI based micro-dilution broth method", "format": "functional", "conditions": "Candidozyma auris"}, "[12]": {"tested_on": "Candida albicans", "test": "Antifungal activity against FCZ-resistant Candida albicans strain 901 assessed as growth inhibition in presence of fluconazole measured after 48 hrs incubation by CLSI based micro-dilution broth method", "format": "functional"}, "[13]": {"tested_on": "Candida albicans", "test": "Antifungal activity against FCZ-resistant Candida albicans strain 904 assessed as growth inhibition in presence of fluconazole measured after 48 hrs incubation by CLSI based micro-dilution broth method", "format": "functional"}, "[14]": {"tested_on": "Candida albicans", "test": "Antifungal activity against FCZ-resistant Candida albicans SC5314 assessed as reduction in CFU at 0.5 to 2 microg/ml measured at 24 hrs incubation by time kill assay (reference value: 5 log10 CFU/ml)", "format": "functional", "conditions": "dose 0.5-2 µg/ml"}, "[15]": {"tested_on": "Candida albicans", "test": "Antifungal activity against FCZ-resistant Candida albicans strain 901 assessed as growth inhibition measured after 48 hrs incubation by CLSI based micro-dilution broth method", "format": "functional"}, "[16]": {"tested_on": "Candida albicans", "test": "Antifungal activity against FCZ-resistant Candida albicans strains assessed as growth inhibition in presence of FCZ measured after 48 hrs incubation by CLSI based micro-dilution broth method", "format": "functional"}, "[17]": {"tested_on": "Candida albicans", "test": "Suppression of BCR1 gene expression in Candida albicans SC5314 assessed as fold increase at 8 microg/ml by real time RT-PCR analysis relative to control", "format": "functional", "conditions": "dose 8.0 µg/ml"}, "[18]": {"tested_on": "Candida albicans", "test": "Suppression of ALS1 gene expression in Candida albicans SC5314 at 4 to 8 microg/ml by real time RT-PCR analysis", "format": "functional", "conditions": "dose 4-8 µg/ml"}}, "note": "Active and inactive are the calls of the source. The rule behind the calls is not given here.", "data": [{"smiles": "O=[N+]([O-])c1ccc(O)c(/C=N/Nc2nc(NCc3ccc(F)cc3)nc(NCc3ccc(F)cc3)n2)c1", "values": [{"measurement": "Activity", "setting": "[1]", "value": "Active"}, {"measurement": "Activity", "setting": "[2]", "value": 40, "unit": "%"}, {"measurement": "Activity", "setting": "[3]", "value": "Active"}, {"measurement": "MIC80", "setting": "[4]", "value": 16, "unit": "µg/mL"}, {"measurement": "fold change (FC)", "setting": "[5]", "value": 1.52}, {"measurement": "MIC80", "setting": "[6]", "value": 2, "unit": "µg/mL"}, {"measurement": "Activity", "setting": "[7]", "value": "Active"}, {"measurement": "MIC80", "setting": "[8]", "value": 0.5, "unit": "µg/mL"}, {"measurement": "MIC80", "setting": "[9]", "value": 1, "unit": "µg/mL"}, {"measurement": "MIC80", "setting": "[10]", "value": 2, "unit": "µg/mL"}, {"measurement": "MIC80", "setting": "[11]", "value": 16, "unit": "µg/mL"}, {"measurement": "MIC80", "setting": "[12]", "value": 0.25, "unit": "µg/mL"}, {"measurement": "MIC80", "setting": "[13]", "value": 0.25, "unit": "µg/mL"}, {"measurement": "Activity", "setting": "[14]", "value": 3.2, "unit": "log10CFU/ml"}, {"measurement": "MIC80", "setting": "[15]", "value": 2, "unit": "µg/mL"}, {"measurement": "MIC80", "setting": "[16]", "value": 0.5, "unit": "µg/mL"}, {"measurement": "fold change (FC)", "setting": "[17]", "value": 1.58}, {"measurement": "Activity", "setting": "[18]", "value": "Active"}]}]}
